Source: PMC7356761 (Molecules, 2020)
“And” between values parts separate entries of the source, which are not always exact repeats. Identical values can stand only once.

Legend:
H1975 tumor = assay: Biodistribution in tumor-bearing mice, H1975 tumor; type: in vivo, mouse; details: for effect of CO-1686 pretreatment on accumulation in H1975 tumor: excess dose CO-1686 (30 mg/kg i.p.) 1 h prior
Experimental: (§1) Male ddY mice (27–30 g, 6 weeks old) and female BALB/c nu/nu mice (12–17 g, 4 weeks old) were purchased from Japan SLC Inc. (Hamamatsu, Japan). The mice were housed in a cage with free access to food and water maintained at a constant temperature (23–25 °C) with a 12 h light/dark cycle. […] The tumor reached palpable size 2- and 3-weeks post-inoculation. Animal experiments were conducted in accordance with laboratory guidelines for the care and use of animals of Kanazawa University. The animal handling protocol was approved by the Kanazawa University Animal Care Committee (approval number: AP-163766). 3.10. Biodistribution Studies Mice were injected intravenously via the lateral tail vein with a saline solution of [^125I]10 (25 kBq, 100 μL) containing 1% tween-80 and 10% ethanol. The ddY mice were sacrificed at 10 min, 1, 4 and 24 h; meanwhile, the tumor-bearing mice were sacrificed at 1 and 4 h post injection. The selected tissues and organs were collected and weighed and their radioactivity was measured using an auto well gamma counter. […] The mice were sacrificed 1 h after the administration of radiotracer. The biodistribution data are expressed as percent injected dose per gram of tissue (% ID/g) along with the SD.

[1] = Biodistribution in normal ddY mice; type: in vivo, mouse
Experimental: as §1

[2] = tested on: H1975 cells (L858R/T790M active mutant EGFR); assay: Cellular uptake study, H1975; type: cell-based, human
Experimental: (§2) 3.8. Cellular Uptake Studies
(§3) Then, the cell culture was incubated in a serum-free medium containing [^125I]10 (3.7 kBq/well) for 4 h. The medium from each well was removed and the cells were washed with 1 mL of ice-cold PBS. Finally, all cell fractions were lysed twice with 0.5 mL of 1 M NaOH aqueous solution. The radioactivity of every fraction was determined by an auto well gamma counter. Total cell protein was determined using the Bicinchoninic Acid (BCA) Protein Assay Kit (Nacalai) protocol, which uses bovine serum albumin as a standard reference. […]. All data were expressed as percent dose per milligram of protein (% dose/mg protein) ± SD.

H3255 tumor = assay: Biodistribution in tumor-bearing mice, H3255 tumor; type: in vivo, mouse
Experimental: as §1

[3] = Partition coefficient, shake-flask n-octanol/phosphate buffer; type: physicochemical; details: n-octanol/0.1 M phosphate buffer pH 7.4, shake-flask
Experimental: 3.6. Determination of Partition Coefficient
The partition coefficient of [^125I]10 was measured, as previously reported with a slight modification. Briefly, [^125I]10 was added to the mixture of each 3 mL of n-octanol and 0.1 M phosphate buffer (pH 7.4) in a test tube. The test tube was vortexed for 1 min, left at room temperature for 10 min and centrifuged at 3000× g and 4 °C for 5 min. The n-octanol layer (2 mL) was transferred into a new test tube followed by adding 1 mL of new n-octanol and 3 mL of phosphate buffer. The radioactivity of each 1 mL layer, n-octanol and phosphate buffer was measured using an auto well gamma counter (n = 4). The log P value was calculated by the logarithm of the ratio of radioactivity per milliliter (cpm/mL) in n-octanol to that in phosphate buffer and represents mean ± SD.

[4] = tested on: H441 cells (wild-type EGFR); assay: Cellular uptake study, H441; type: cell-based, human; details: H441, 4 h incubation
Experimental: as §2, §3

[5] = In vitro stability in PBS; type: physicochemical; details: 0.1 M PBS pH 7.4, 37 °C
Experimental: 3.7. In Vitro Stability Experiments
The in vitro stability of [^125I]10 was examined in phosphate buffered saline (PBS) and mouse plasma. Briefly, [^125I]10 solution (50 µL) in a sealed tube containing 0.1 M PBS pH 7.4 (450 µL) was incubated at 37 °C for 1 and 24 h. After incubation, the purities of radiotracers were analyzed by RP-HPLC with mobile phase system water (A) and methanol (B), B: 70–100%, 20 min using a Cosmosil® 5C18 MSII (4.6 ID × 150 mm) column, a flow rate 1 mL/min. The column temperature was kept at 40 °C.

effect of CO-1686 pretreatment on accumulation in H1975 tumor (H1975 tumor): not inhibited
effect of CO-1686 pretreatment on accumulation in H1975 tumor (H1975 tumor; listed as [^125I]ICO1686): not reduced
tumor/blood ratio (H1975 tumor; tumor-bearing mice): approximately 1
Biodistribution, H1975 tumor (H1975 tumor; tumor-bearing mice, Blocking (1 h), CO-1686 30 mg/kg i.p. 1 h prior): 1.65 (0.64) % ID/g tissue
Biodistribution, H1975 tumor (H1975 tumor; tumor-bearing mice, i.v., 1 h): 1.77 (0.43) % ID/g tissue
Biodistribution, H1975 tumor (H1975 tumor; tumor-bearing mice, i.v., 1 h, listed as [^125I]ICO1686): 1.77 ± 0.43 % ID/g tissue
Biodistribution, H1975 tumor (H1975 tumor; tumor-bearing mice, i.v., 4 h): 0.43 (0.08) % ID/g tissue
radiotracer excreted in feces ([1]; 24 h after injection): ~70%
Biodistribution, Blood ([1]; i.v., 10 min): 1.06 (0.19) % ID/g tissue
Biodistribution, Bone ([1]; i.v., 10 min): 1.16 (0.21) % ID/g tissue
Biodistribution, Brain ([1]; i.v., 10 min): 0.11 (0.02) % ID/g tissue
Biodistribution, Heart ([1]; i.v., 10 min): 3.11 (0.64) % ID/g tissue
Biodistribution, Kidney ([1]; i.v., 10 min): 7.48 (1.55) % ID/g tissue
Biodistribution, Large intestine ([1]; i.v., 10 min): 0.57 (0.04) % ID/g tissue
Biodistribution, Liver ([1]; i.v., 10 min): 26.69 (0.81) % ID/g tissue
Biodistribution, Lung ([1]; i.v., 10 min): 4.47 (1.39) % ID/g tissue
Biodistribution, Muscle ([1]; i.v., 10 min): 1.40 (0.16) % ID/g tissue
Biodistribution, Pancreas ([1]; i.v., 10 min): 1.93 (0.37) % ID/g tissue
Biodistribution, Small intestine ([1]; i.v., 10 min): 9.46 (2.19) % ID/g tissue
Biodistribution, Spleen ([1]; i.v., 10 min): 2.14 (0.50) % ID/g tissue
Biodistribution, Stomach ([1]; i.v., 10 min): 3.52 (2.70) % ID/organ
Biodistribution, Blood ([1]; i.v., 1 h): 0.49 (0.05) % ID/g tissue
Biodistribution, Bone ([1]; i.v., 1 h): 0.50 (0.22) % ID/g tissue
Biodistribution, Brain ([1]; i.v., 1 h): 0.05 (0.02) % ID/g tissue
Biodistribution, Heart ([1]; i.v., 1 h): 0.79 (0.13) % ID/g tissue
Biodistribution, Kidney ([1]; i.v., 1 h): 3.76 (0.40) % ID/g tissue
Biodistribution, Large intestine ([1]; i.v., 1 h): 0.53 (0.08) % ID/g tissue
Biodistribution, Liver ([1]; i.v., 1 h): 18.57 (2.72) % ID/g tissue
Biodistribution, Lung ([1]; i.v., 1 h): 1.33 (0.08) % ID/g tissue
Biodistribution, Muscle ([1]; i.v., 1 h): 0.44 (0.05) % ID/g tissue
Biodistribution, Pancreas ([1]; i.v., 1 h): 0.99 (0.26) % ID/g tissue
Biodistribution, Small intestine ([1]; i.v., 1 h): 23.96 (2.18) % ID/g tissue
Biodistribution, Spleen ([1]; i.v., 1 h): 0.90 (0.17) % ID/g tissue
Biodistribution, Stomach ([1]; i.v., 1 h): 5.10 (1.18) % ID/organ
Biodistribution, Blood ([1]; i.v., 4 h): 0.33 (0.07) % ID/g tissue
Biodistribution, Bone ([1]; i.v., 4 h): 0.29 (0.11) % ID/g tissue
Biodistribution, Brain ([1]; i.v., 4 h): 0.03 (0.01) % ID/g tissue
Biodistribution, Heart ([1]; i.v., 4 h): 0.35 (0.09) % ID/g tissue
Biodistribution, Kidney ([1]; i.v., 4 h): 2.37 (0.17) % ID/g tissue
Biodistribution, Liver ([1]; i.v., 4 h): 7.85 (0.92) % ID/g tissue
Biodistribution, Lung ([1]; i.v., 4 h): 0.86 (0.10) % ID/g tissue
Biodistribution, Muscle ([1]; i.v., 4 h): 0.13 (0.03) % ID/g tissue
Biodistribution, Pancreas ([1]; i.v., 4 h): 0.41 (0.03) % ID/g tissue
Biodistribution, Small intestine ([1]; i.v., 4 h): 9.81 (1.03) % ID/g tissue
Biodistribution, Spleen ([1]; i.v., 4 h): 0.58 (0.11) % ID/g tissue
Biodistribution, Stomach ([1]; i.v., 4 h): 1.38 (0.56) % ID/organ
Biodistribution, Blood ([1]; i.v., 24 h): 0.05 (0.01) % ID/g tissue
Biodistribution, Bone ([1]; i.v., 24 h): 0.07 (0.05) % ID/g tissue
Biodistribution, Brain ([1]; i.v., 24 h): 0.01 (0.01) % ID/g tissue
Biodistribution, Feces ([1]; i.v., 24 h): 69.9 % ID
Biodistribution, Heart ([1]; i.v., 24 h): 0.09 (0.05) % ID/g tissue
Biodistribution, Kidney ([1]; i.v., 24 h): 0.25 (0.01) % ID/g tissue
Biodistribution, Large intestine ([1]; i.v., 24 h): 0.34 (0.08) % ID/g tissue
Biodistribution, Liver ([1]; i.v., 24 h): 0.80 (0.10) % ID/g tissue
Biodistribution, Lung ([1]; i.v., 24 h): 0.26 (0.03) % ID/g tissue
Biodistribution, Muscle ([1]; i.v., 24 h): 0.04 (0.04) % ID/g tissue
Biodistribution, Pancreas ([1]; i.v., 24 h): 0.10 (0.11) % ID/g tissue
Biodistribution, Small intestine ([1]; i.v., 24 h): 0.10 (0.01) % ID/g tissue
Biodistribution, Spleen ([1]; i.v., 24 h): 0.08 (0.04) % ID/g tissue
Biodistribution, Stomach ([1]; i.v., 24 h): 0.08 (0.02) % ID/organ
Biodistribution, Urine ([1]; i.v., 24 h): 4.07 (0.83) % ID/g tissue
Biodistribution, H3255 tumor (H3255 tumor; Blocking (1 h), CO-1686 30 mg/kg i.p. 1 h prior): 1.47 (0.71) % ID/g tissue
Biodistribution, H3255 tumor (H3255 tumor; i.v., 1 h): 1.63 (0.23) % ID/g tissue
Biodistribution, H3255 tumor (H3255 tumor; i.v., 1 h, listed as [^125I]ICO1686): 1.63 ± 0.23 % ID/g tissue
Biodistribution, H3255 tumor (H3255 tumor; i.v., 4 h): 0.70 (0.13) % ID/g tissue
logP [3]: 1.84 ± 0.01
stability in PBS ([5]; 24 h incubation): purity decreased gradually
stability in PBS ([5]; until 1 h): slightly decomposed
Compound: C=CC(=O)Nc1cc([125I])cc(Nc2nc(Nc3ccc(N4CCN(C(C)=O)CC4)cc3OC)ncc2C(F)(F)F)c1 [[^125I]10]
Biodistribution, Large intestine ([1]; i.v., 4 h): 53.44 ± 6.73 % ID/g tissue and 53.44 (6.73) % ID/g tissue
cell uptake ([2]; H1975, 4 h incubation): 101.52 % dose/mg protein
cell uptake with blocking ([2]; H1975, excess CO-1686 (100 µM)): 45.61 % dose/mg protein
effect of gefitinib blocking on accumulation ([2]; H1975, gefitinib 100 µM): did not reduce
cell uptake [4]: 8.95 % dose/mg protein
